Assay results reported in paper PMC12028158, “Synthesis and In Vitro Evaluation of the Anticancer Effect of Novel Phosphonium Vindoline Derivatives” (International Journal of Molecular Sciences, 2025).
Like-named read-outs stand apart in the source and are kept apart here.

How the values were obtained:
Type in all cases: cell-based
[1] = test system: SN12C; assay: NCI60 five-dose screen; settings: Homo sapiens, Renal Cancer, read-out: GI50
[2] = test system: NCI-H226; assay: NCI60 five-dose screen; settings: Homo sapiens, NCI-H226, Non-small Cell Lung Cancer, read-out: GI50
[3] = test system: UO-31; assay: NCI60 five-dose screen; settings: Homo sapiens, UO-31, Renal Cancer, read-out: GI50
[4] = test system: HS 578T; assay: NCI60 five-dose screen; settings: Homo sapiens, HS 578T, Breast Cancer, read-out: GI50
[5] = test system: HOP-62; assay: NCI60 one-dose screen; settings: Homo sapiens; HOP-62, 10 μM, one-dose; read-out: Growth percent
[6] = test system: SK-MEL-2; assay: NCI60 one-dose screen; settings: Homo sapiens; SK-MEL-2, 10 μM, one-dose; read-out: Growth percent
[7] = test system: SNB-75; assay: NCI60 five-dose screen; settings: Homo sapiens, SNB-75, CNS Cancer, read-out: GI50
[8] = test system: Leukemia panel; assay: NCI60 five-dose screen, panel mean; settings: Homo sapiens, mean over Leukemia panel
[9] = test system: U251; assay: NCI60 one-dose screen; settings: Homo sapiens, U-251; U251, 10 μM, one-dose; read-out: Growth percent
[10] = test system: HCC-2998; assay: NCI60 five-dose screen; settings: Homo sapiens, HCC-2998, Colon Cancer, read-out: GI50
[11] = test system: MOLT-4; assay: NCI60 one-dose screen; settings: Homo sapiens; MOLT-4, 10 μM, one-dose; read-out: Growth percent
[12] = test system: OVCAR-8; assay: NCI60 one-dose screen; settings: Homo sapiens; OVCAR-8, 10 μM, one-dose; read-out: Growth percent
[13] = test system: SNB-19; assay: NCI60 five-dose screen; settings: Homo sapiens, read-out: GI50
[14] = test system: HOP-92; assay: NCI60 five-dose screen; settings: Homo sapiens, HOP-92, Non-small Cell Lung Cancer, read-out: GI50
[15] = test system: CAKI-1; assay: NCI60 one-dose screen; settings: Homo sapiens; CAKI-1, 10 μM, one-dose; read-out: Growth percent
[16] = test system: SF-295; assay: NCI60 one-dose screen; settings: Homo sapiens; SF-295, 10 μM, one-dose; read-out: Growth percent
[17] = test system: ACHN; assay: NCI60 one-dose screen; settings: Homo sapiens, 10 μM, one-dose, read-out: Growth percent
[18] = test system: SK-MEL-5; assay: NCI60 five-dose screen; settings: Homo sapiens, SK-MEL-5, Melanoma, read-out: GI50
[19] = test system: Colon Cancer panel; assay: NCI60 five-dose screen, panel mean; settings: Homo sapiens, mean over Colon Cancer panel
[20] = test system: HOP-92; assay: NCI60 one-dose screen; settings: Homo sapiens; HOP-92, 10 μM, one-dose; read-out: Growth percent
[21] = test system: CAKI-1; assay: NCI60 five-dose screen; settings: Homo sapiens, CAKI-1, Renal Cancer, read-out: GI50
[22] = test system: Breast Cancer panel; assay: NCI60 five-dose screen, panel mean; settings: Homo sapiens, mean over Breast Cancer panel
[23] = test system: SR; assay: NCI60 five-dose screen; settings: Homo sapiens, Leukemia, five-dose, read-out: GI50
[24] = test system: SF-268; assay: NCI60 five-dose screen; settings: Homo sapiens, SF-268, CNS Cancer, read-out: GI50
[25] = test system: MCF7; assay: NCI60 one-dose screen; settings: Homo sapiens; MCF7, 10 μM, one-dose; read-out: Growth percent
[26] = test system: UACC-257; assay: NCI60 one-dose screen; settings: Homo sapiens; UACC-257, 10 μM, one-dose; read-out: Growth percent
[27] = test system: BT-549; assay: NCI60 one-dose screen; settings: Homo sapiens; BT-549, 10 μM, one-dose; read-out: Growth percent
[28] = test system: A549/ATCC; assay: NCI60 five-dose screen; settings: Homo sapiens, A549/ATCC, Non-small Cell Lung Cancer, read-out: GI50
[29] = test system: MDA-MB-435; assay: NCI60 five-dose screen; settings: Homo sapiens, MDA-MB-435, Melanoma, read-out: GI50
[30] = test system: T-47D; assay: NCI60 five-dose screen; settings: Homo sapiens, T47D, T-47D, Breast Cancer, read-out: GI50
[31] = test system: HL-60(TB); assay: NCI60 one-dose screen; settings: Homo sapiens
[32] = test system: MDA-MB231ATCC; assay: NCI60 five-dose screen; settings: Homo sapiens, MDA-MB-231, MDA-MB231ATCC, Breast Cancer, read-out: GI50
[33] = test system: HT29; assay: NCI60 five-dose screen; settings: Homo sapiens, HT-29, HT29, Colon Cancer, read-out: GI50
[34] = test system: SK-MEL-2; assay: NCI60 five-dose screen; settings: Homo sapiens, read-out: GI50
[35] = test system: IGROV1; assay: NCI60 five-dose screen; settings: Homo sapiens, IGROV-1, IGROV1, Ovarian Cancer, read-out: GI50
[36] = test system: CNS Cancer panel; assay: NCI60 five-dose screen, panel mean; settings: Homo sapiens, mean over CNS Cancer panel
[37] = test system: NCI-H226; assay: NCI60 one-dose screen; settings: Homo sapiens; NCI-H226, 10 μM, one-dose; read-out: Growth percent
[38] = test system: 60 human tumor cell lines (NCI60); assay: NCI60 five-dose screen, overall mean; settings: mean over all 60 human cancer cell lines, read-out: GI50 Mean

Compound: CC[C@]12C=CCN3CC[C@@]4(c5ccc(OC)cc5N(C)[C@H]4[C@@](O)(C(=O)OC)[C@@H]1OC(=O)CCC[P+](c1cc(C)c(OC)c(C)c1)(c1cc(C)c(OC)c(C)c1)c1cc(C)c(OC)c(C)c1)[C@@H]32 [9e]
- GI50 ([1]; five-dose): 159 nM
- GI50 ([2]; five-dose): 230 nM
- GI50 ([3]; five-dose): 1480 nM
- GI50 ([4]; five-dose): 185 nM
- activity at 10 µM [5]: -97.9%
- activity at 10 µM [6]: -98.2%
- GI50 ([7]; five-dose): 195 nM
- GI50 ([8]; read-out: Mean GI50): 110 nM
- activity at 10 µM [9]: -96.5%
- GI50 ([10]; five-dose): 195 nM
- activity at 10 µM [11]: -98.3%
- activity at 10 µM [12]: -95.5%
- GI50 ([13]; SNB-19, CNS cancer SNB-19, text): < 100 nM
- GI50 ([13]; SNB-19, SNB-19, CNS Cancer, five-dose): 59 nM
- GI50 ([14]; five-dose): 201 nM
- activity at 10 µM [15]: -97%
- activity at 10 µM [16]: -98.6%
- activity at 10 µM [17]: -96.5%
- GI50 ([18]; five-dose): 138 nM
- GI50 ([19]; read-out: Mean GI50): 240 nM
- activity at 10 µM [20]: -98.9%
- GI50 ([21]; five-dose): 313 nM
- GI50 ([22]; read-out: Mean GI50): 140 nM
- GI50 [23]: 144 nM
- GI50 ([24]; five-dose): 231 nM
- activity at 10 µM [25]: -94.5%
- activity at 10 µM [26]: -99.3%
- activity at 10 µM [27]: -98%
- GI50 ([28]; five-dose): 275 nM
- GI50 ([29]; five-dose): 231 nM
- GI50 ([30]; five-dose): 105 nM
- activity at 10 µM ([31]; HL-60(TB), 10 μM, one-dose, read-out: Growth percent): -97.2%
- GI50 ([32]; five-dose): 293 nM
- GI50 ([33]; five-dose): 151 nM
- GI50 ([34]; SK-MEL-2, SK-MEL-2, Melanoma, five-dose): 60 nM
- GI50 ([34]; SK-MEL-2, melanoma SK-MEL-2, text): < 100 nM
- GI50 ([35]; five-dose): 193 nM
- GI50 ([36]; read-out: Mean GI50): 180 nM
- activity at 10 µM [37]: -99.3%

Compound: CCC12C=CCN3CCC4(c5ccc(OC)cc5N(C)C4C(O)(C(=O)OC)C1OC(=O)c1ccc(C[P+](c4ccccc4)(c4ccccc4)c4ccccc4)cc1)C32 (stereo not shown) [compound 12]
- GI50 [1]: 708 nM
- GI50 [2]: 1540 nM
- GI50 [3]: 20000 nM
- GI50 [4]: 1270 nM
- activity at 10 µM [5]: -32.7%
- activity at 10 µM [6]: -77.8%
- GI50 [7]: 1110 nM
- GI50 ([8]; read-out: GI50 Mean): 770 nM
- activity at 10 µM [9]: -72.6%
- GI50 [10]: 991 nM
- activity at 10 µM [11]: -53%
- activity at 10 µM [12]: -18.5%
- GI50 ([13]; SNB-19, SNB-19, CNS Cancer): 725 nM
- GI50 [14]: 404 nM
- activity at 10 µM [15]: -7.04%
- activity at 10 µM [16]: 5.9%
- activity at 10 µM [17]: 73.7%
- GI50 [18]: 1210 nM
- GI50 ([19]; read-out: GI50 Mean): 4690 nM
- activity at 10 µM [20]: -73.4%
- GI50 [21]: 3260 nM
- GI50 ([22]; read-out: GI50 Mean): 610 nM
- GI50 [24]: 1280 nM
- activity at 10 µM [25]: -52.8%
- GI50 [38]: 4320 nM
- activity at 10 µM [26]: -67.6%
- activity at 10 µM [27]: -89.1%
- GI50 [28]: 2090 nM
- GI50 [29]: 483 nM
- GI50 [30]: 525 nM
- activity at 10 µM ([31]; HL-60, read-out: Growth percent): -69%
- GI50 [32]: 686 nM
- GI50 [33]: 541 nM
- GI50 ([34]; SK-MEL-2, SK-MEL-2, Melanoma): 1270 nM
- GI50 [35]: 885 nM
- GI50 ([36]; read-out: GI50 Mean): 1320 nM
- activity at 10 µM [37]: -23.1%
